Test results: BindingDB's records for patent US12565504 (Biogen Ma, 2026)

Biological target: T1, Protein O-GlcNAcase (Homo sapiens, UniProt O60502)
T1 sequence (O60502 whole entry): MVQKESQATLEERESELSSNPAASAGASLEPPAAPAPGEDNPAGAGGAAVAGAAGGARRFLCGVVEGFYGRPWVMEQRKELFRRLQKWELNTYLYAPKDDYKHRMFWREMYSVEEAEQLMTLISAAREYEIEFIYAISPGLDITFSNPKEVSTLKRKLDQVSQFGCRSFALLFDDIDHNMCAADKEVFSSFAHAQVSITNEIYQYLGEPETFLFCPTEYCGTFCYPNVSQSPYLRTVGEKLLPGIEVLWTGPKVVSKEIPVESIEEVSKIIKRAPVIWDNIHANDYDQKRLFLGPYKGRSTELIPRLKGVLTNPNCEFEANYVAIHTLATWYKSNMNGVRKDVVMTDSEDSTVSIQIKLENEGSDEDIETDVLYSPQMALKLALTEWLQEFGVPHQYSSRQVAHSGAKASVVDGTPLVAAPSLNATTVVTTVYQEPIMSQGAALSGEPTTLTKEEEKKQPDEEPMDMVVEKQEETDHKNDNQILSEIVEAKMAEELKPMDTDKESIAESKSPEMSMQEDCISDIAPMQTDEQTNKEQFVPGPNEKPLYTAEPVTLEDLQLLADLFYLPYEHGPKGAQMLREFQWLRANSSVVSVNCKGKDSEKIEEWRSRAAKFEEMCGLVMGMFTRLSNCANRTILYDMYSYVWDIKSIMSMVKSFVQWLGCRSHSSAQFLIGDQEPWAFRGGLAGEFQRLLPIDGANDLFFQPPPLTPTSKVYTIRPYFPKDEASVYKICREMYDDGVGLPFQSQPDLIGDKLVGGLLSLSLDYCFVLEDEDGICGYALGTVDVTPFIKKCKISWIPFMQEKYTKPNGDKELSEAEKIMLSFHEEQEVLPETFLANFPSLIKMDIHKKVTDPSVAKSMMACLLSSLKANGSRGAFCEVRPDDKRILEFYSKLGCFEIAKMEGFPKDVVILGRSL
Test: OGA Enzyme Inhibition Biochemical Assay
Protocol: Recombinant full length human OGA enzyme was purchased from Origene. 4-MUGlcNAc substrate was purchased from Sigma. All other reagents were purchased from Sigma or Fisher. Assay buffer consists of the McIlvaine buffer system, pH 6.4 (0.2M Na2HPO4 mixed with 0.1M citric acid) and 0.01% BSA. […] Reactions were incubated for 90 minutes at room temperature and quenched with 40 μl of 3M glycine, pH 10 and read on a Perkin Elmer Envision plate reader (Ex: 355 nm/Em: 460 nm). Compounds were tested with a 10-point dose-response starting from 20 μM with a 4-fold dilution. Data was fit using GraphPad Prism using a 4-parameter fit with variable slope.

Row | IC50 [nM] | Structure (SMILES)
1 | 10 | COc1cc2c(cn1)[C@]1(C[C@H](C)N(Cc3sc(NC(C)=O)nc3F)C1)OC2 (single isomer, unassigned) [US12565504, Example 75-a]
2 | 47 | COc1cc2c(cn1)[C@@]1(C[C@H](C)N(Cc3sc(NC(C)=O)nc3F)C1)OC2 (single isomer, unassigned) [US12565504, Example 75-b]
3 | 4 | COc1nccc2c1COC21C[C@H](C)N(Cc2sc(NC(C)=O)nc2F)C1 (some centres undefined) [US12565504, Example 77]
4 | 10 | CC(=O)Nc1nc(F)c(CN2CC3(C[C@@H]2C)OCc2ncccc23)s1 (some centres undefined) [US12565504, Example 79]
